Here are results for eight molecules from PMC11568248, “Targeting Candida albicans O-acetyl-L-homoserine sulfhydrylase (Met15p) in antifungal treatment” (Scientific Reports, 2024).

Data set [1] has as its target T1, CaMet15NHp (Candida albicans, UniProt Q59US5).
T1 construct: gene MET15; mostly homotetramer
T1 sequence (Q59US5 2-440): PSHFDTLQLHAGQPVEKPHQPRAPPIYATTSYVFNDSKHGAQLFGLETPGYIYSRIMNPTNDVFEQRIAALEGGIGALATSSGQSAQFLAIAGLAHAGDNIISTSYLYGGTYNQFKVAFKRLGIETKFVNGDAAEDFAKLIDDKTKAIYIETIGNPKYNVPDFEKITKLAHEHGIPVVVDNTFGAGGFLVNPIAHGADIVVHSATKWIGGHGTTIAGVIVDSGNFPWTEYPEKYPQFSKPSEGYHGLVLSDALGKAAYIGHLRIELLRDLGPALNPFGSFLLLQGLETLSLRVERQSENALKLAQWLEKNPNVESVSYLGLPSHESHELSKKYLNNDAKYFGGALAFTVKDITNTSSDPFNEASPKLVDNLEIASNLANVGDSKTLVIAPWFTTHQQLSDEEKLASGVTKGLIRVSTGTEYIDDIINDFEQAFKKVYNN
The data set is described as follows: RP-HPLC-DAD of L-homocysteine derivatized with DTNB. It counts as biochemical. The settings on record: read-out: % inhibition at 10 mM.

In data set [2] the target is T1, CaMet15NHp. The data set is described as above. The settings on record: substrates OAH and Na2S, 0.2 mM PLP, pH 8.0, 37 °C; racemate. The format is biochemical.
The subject of data set [3] is S. The data set can be described thus: purified protein. The settings on record: O-acetyl-L-homoserine co-substrate, 0.2 mM PLP, 50 mM Tris-HCl pH 8.0, 100 mM NaCl, 37 °C, sulfide ion donor.
Substrate in data set [4]: CC(=O)OCC[C@H](N)C(=O)O
The data set is described as follows: purified protein. The settings on record: Na2S co-substrate, 0.2 mM PLP, 50 mM Tris-HCl pH 8.0, 100 mM NaCl, 37 °C.

On to `CC(=O)NCC[C@H](N)C(=O)O` [AcDAB, N[4]-acetyl-(S)−2,4-diaminobutanoic acid], for which the inhibition at 10000 µM in data set [1] is around 70%.

Take `C=CCC(N)C(=O)O` (racemic) [DL-ALG, DL-2-allylglycine]: in data set [2], the “% inhibition at 10 mM” value was “DL-2-allyglycine (DL-ALG), and DL-glufosinate (DL-GLUF) were slightly inhibitory”.

Turning to `CC(C)(S)[C@H](N)C(=O)O` [L-PEN, L-penicillamine], the inhibition at 10000 µM in data set [1] is above 50%.

Consider `CP(=O)(O)CCC(N)C(=O)O` (racemic) [DL-GLUF, DL-glufosinate], for which the “% inhibition at 10 mM” value in data set [2] was “DL-2-allyglycine (DL-ALG), and DL-glufosinate (DL-GLUF) were slightly inhibitory”.

As for `N[C@@H](CCNC(=O)c1ccccc1)C(=O)O` [BzDAB, 3-benzamido-1-carboxypropan-1-aminium chloride], the inhibition at 10000 µM in data set [1] was around 44%.

As for CaMet15NHp (Candida albicans SC5314), the Km in data set [3] stood at 0.027 ± 0.0021 mM.

As to `CSCC[C@H](N)C(=O)O` [L-Met, L-methionine], the inhibition at 10000 µM in data set [1] is below 15%.

B1: CaMet15NHp (Candida albicans SC5314) (protein)
chain: PSHFDTLQLHAGQPVEKPHQPRAPPIYATTSYVFNDSKHGAQLFGLETPGYIYSRIMNPTNDVFEQRIAALEGGIGALATSSGQSAQFLAIAGLAHAGDNIISTSYLYGGTYNQFKVAFKRLGIETKFVNGDAAEDFAKLIDDKTKAIYIETIGNPKYNVPDFEKITKLAHEHGIPVVVDNTFGAGGFLVNPIAHGADIVVHSATKWIGGHGTTIAGVIVDSGNFPWTEYPEKYPQFSKPSEGYHGLVLSDALGKAAYIGHLRIELLRDLGPALNPFGSFLLLQGLETLSLRVERQSENALKLAQWLEKNPNVESVSYLGLPSHESHELSKKYLNNDAKYFGGALAFTVKDITNTSSDPFNEASPKLVDNLEIASNLANVGDSKTLVIAPWFTTHQQLSDEEKLASGVTKGLIRVSTGTEYIDDIINDFEQAFKKVYNN
Consider B1, for which, in data set [4], the Km amounted to 9.12 ± 1.77 mM.
